The values below come from publication PMC4553520, “Laboratory and Simulated Field Bioassays to Evaluate Larvicidal Activity of Pinus densiflora Hydrodistillate, Its Constituents and Structurally Related Compounds against Aedes albopictus, Aedes aegypti and Culex pipiens pallens in Relation to Their Inhibitory Effects on Acetylcholinesterase Activity” (Insects, 2013).

Series [1] has as its system early third-instar larvae of Cx. p. pallens. In words: Direct-contact mortality bioassay, laboratory-reared Cx. p. pallens larvae. Conditions: for LC50: Culex pipiens, 24 h, read-out: LC50 (Cx p. pallens), mg/L (95% CL); for LC50 (Cx p. pallens), mg/L (95% CL): laboratory-reared early third-instar larvae, 24 h exposure, direct contact. As to the method:
(§1) Direct-contact mortality bioassays were employed to evaluate the toxicity of all compounds, using early third-instar larvae of each mosquito species. Each compound was dissolved in methanol, and then further diluted in distilled water containing Triton X-100 (20 µL/L). Groups of 20 mosquito larvae of each species were put into separate paper cups (270 mL), each containing different compound solutions (250 mL). The toxicity of each compound was determined by repeating this experimental procedure with different concentrations, ranging from 5 to 200 mg/L. Temephos and fenthion served as standard references and were similarly formulated as well. Controls contained only methanol-Triton X-100 carrier solution in distilled water.
(§2) Both treated and control larvae were kept under the same conditions as those used for colony maintenance. […] Due to certain constraints arising from the number of available larvae, all necessary bioassays could not be conducted simultaneously and thus, treatments were conducted over a period of time, with a separate control treatment included each time. Freshly prepared compound solutions were used for each round of bioassays. All bioassays were repeated three times.
(§3) Concentration-mortality data were subjected to probit analysis using SAS [20]. […] Furthermore, for the compounds tested in AChE inhibition assays, a correlation analysis between their LC50 values and IC50 values was conducted using SAS [20].

The test system of series [2] is early third-instar larvae of Ae. aegypti. In words: Direct-contact mortality bioassay, Ae. aegypti larvae. To be noted: for LC50: Aedes aegypti, 24 h, read-out: LC50 (Ae. aegypti), mg/L (95% CL); for LC50 (Ae. aegypti), mg/L (95% CL): early third-instar larvae, 24 h exposure, direct contact. The method, then: as §1, §2, §3
The test system of series [3] is early third-instar larvae of Ae. albopictus. In words: Direct-contact mortality bioassay, Ae. albopictus larvae. To be noted: for LC50: Aedes albopictus, 24 h, read-out: LC50 (Ae. albopictus), mg/L (95% CL); for LC50 (Ae. albopictus), mg/L (95% CL): early third-instar larvae, 24 h exposure, direct contact. As to the method: as §1, §2, §3
Series [4] has as its system field-collected larvae of Cx. p. pallens. In words: Semi-field bioassay, field-collected Cx. p. pallens larvae. To be noted: for LC50: Culex pipiens, 24 h, read-out: LC50, mg/L, Field-collected; for Resistance ratio: field-collected vs laboratory-reared Cx. p. pallens larvae (LC50 ratio). The method, then: Larvae of wild mosquitoes were field-collected from irrigated rice fields in Yongin, Korea in early August 2012. A satellite view of the larvae collection site is included in Figure 1 [13].
The buckets were treated with test compounds and covered with nylon mesh screen to prevent other mosquitoes and insects from laying eggs. The buckets were then placed back at the initial collection site and were allowed to stand for 24 h, after which the mortality data were recorded. Temephos and fenthion served as standard references.
as §3

The target in series [5] is acetylcholinesterase (AChE) extracted from the heads of larval Cx. p. pallens (Culex pipiens pallens, UniProt Q86GC8). The experiment in a line: AChE inhibition assay, Cx. p. pallens. Format: biochemical. Conditions: in vitro. As to the method:
(§4) For each species, larvae frozen at −20 °C were decapitated and 100 heads were homogenized in 5 mL of ice-cold 0.1 M sodium phosphate buffer (pH 8.0), using a Teflon glass tissue homogenizer. The homogenate was centrifuged at 10,000 × g at 4 °C for 20 min. The supernatant was filtered by a 0.22 µm-Millex-GV filter (Millipore, Cork, Ireland) and was used as the AChE preparation. Protein concentrations were determined by the Bradford dye method using BSA as the standard. A microplate AChE assay was carried out following the method of Moores et al. adapted from Ellman et al.. The reaction mixture consisted of 80 µL of the crude enzyme preparation, 10 µL of 7.5 mM DTNB in phosphate buffer (pH 7.0) and 100 µL of the selected test compounds of various concentrations in 2.5% acetone. The reaction mixture was incubated at 30 °C for 5 min and 10 µL of 6.25 mM ATChI was then added to the mixture. The absorbance was recorded at 414 nm, using a Molecular Devices VersaMax microplate reader (Sunnyvale, CA, USA). All AChE inhibition assays were repeated three times in triplicates.
as §3

Series [6] deals with acetylcholinesterase (AChE) extracted from the heads of larval Ae. albopictus (Aedes albopictus, UniProt Q2PGF2). The experiment in a line: AChE inhibition assay, Ae. albopictus. In kind it is biochemical. Conditions: in vitro. As to the method:
as §4, §3

The target of series [7] is acetylcholinesterase (AChE) extracted from the heads of larval Ae. aegypti (Aedes aegypti, UniProt Q6A2E2). The experiment in a line: AChE inhibition assay, Ae. aegypti. In kind it is biochemical. Conditions: in vitro. The method, then: as §4, §3

Values after ≈ are worked out from the molar mass of the structure shown.

Chain of acetylcholinesterase (AChE) extracted from the heads of larval Cx. p. pallens (Q86GC8 37-702): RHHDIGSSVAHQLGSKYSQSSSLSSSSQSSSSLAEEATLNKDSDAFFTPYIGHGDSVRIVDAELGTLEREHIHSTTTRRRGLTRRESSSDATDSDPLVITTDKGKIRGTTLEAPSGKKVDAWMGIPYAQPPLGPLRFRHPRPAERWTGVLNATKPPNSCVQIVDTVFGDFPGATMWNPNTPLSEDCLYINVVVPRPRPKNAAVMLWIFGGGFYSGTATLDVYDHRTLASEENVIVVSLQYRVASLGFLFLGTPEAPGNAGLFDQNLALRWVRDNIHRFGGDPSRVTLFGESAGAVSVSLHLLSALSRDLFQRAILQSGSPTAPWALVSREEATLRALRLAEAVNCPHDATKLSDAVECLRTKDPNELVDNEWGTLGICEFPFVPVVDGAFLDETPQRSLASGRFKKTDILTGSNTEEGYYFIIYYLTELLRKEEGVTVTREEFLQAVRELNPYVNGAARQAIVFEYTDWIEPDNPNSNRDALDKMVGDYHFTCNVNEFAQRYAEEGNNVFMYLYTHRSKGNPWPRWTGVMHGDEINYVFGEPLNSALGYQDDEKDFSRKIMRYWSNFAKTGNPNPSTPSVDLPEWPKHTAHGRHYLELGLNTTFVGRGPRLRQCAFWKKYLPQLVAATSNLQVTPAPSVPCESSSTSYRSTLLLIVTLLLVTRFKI
Chain of acetylcholinesterase (AChE) extracted from the heads of larval Ae. aegypti (Q6A2E2 37-679): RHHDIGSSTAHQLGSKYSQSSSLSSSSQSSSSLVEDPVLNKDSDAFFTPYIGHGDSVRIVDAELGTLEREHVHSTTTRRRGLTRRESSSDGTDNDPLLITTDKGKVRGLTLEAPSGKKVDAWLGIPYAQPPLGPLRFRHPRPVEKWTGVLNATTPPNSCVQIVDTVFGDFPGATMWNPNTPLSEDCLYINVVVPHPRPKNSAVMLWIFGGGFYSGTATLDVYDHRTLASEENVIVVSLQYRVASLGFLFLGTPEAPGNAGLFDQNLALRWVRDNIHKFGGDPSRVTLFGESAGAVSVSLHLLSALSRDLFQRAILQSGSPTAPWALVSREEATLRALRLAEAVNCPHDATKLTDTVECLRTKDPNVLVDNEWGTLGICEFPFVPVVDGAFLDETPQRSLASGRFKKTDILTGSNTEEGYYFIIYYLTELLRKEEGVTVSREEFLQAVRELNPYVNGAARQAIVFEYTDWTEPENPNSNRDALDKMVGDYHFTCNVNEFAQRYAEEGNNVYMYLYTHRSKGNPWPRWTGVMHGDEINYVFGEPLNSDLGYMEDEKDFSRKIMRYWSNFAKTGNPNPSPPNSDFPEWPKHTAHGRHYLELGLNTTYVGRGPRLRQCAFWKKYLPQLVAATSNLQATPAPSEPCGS
Chain of acetylcholinesterase (AChE) extracted from the heads of larval Ae. albopictus (Q2PGF2 37-680): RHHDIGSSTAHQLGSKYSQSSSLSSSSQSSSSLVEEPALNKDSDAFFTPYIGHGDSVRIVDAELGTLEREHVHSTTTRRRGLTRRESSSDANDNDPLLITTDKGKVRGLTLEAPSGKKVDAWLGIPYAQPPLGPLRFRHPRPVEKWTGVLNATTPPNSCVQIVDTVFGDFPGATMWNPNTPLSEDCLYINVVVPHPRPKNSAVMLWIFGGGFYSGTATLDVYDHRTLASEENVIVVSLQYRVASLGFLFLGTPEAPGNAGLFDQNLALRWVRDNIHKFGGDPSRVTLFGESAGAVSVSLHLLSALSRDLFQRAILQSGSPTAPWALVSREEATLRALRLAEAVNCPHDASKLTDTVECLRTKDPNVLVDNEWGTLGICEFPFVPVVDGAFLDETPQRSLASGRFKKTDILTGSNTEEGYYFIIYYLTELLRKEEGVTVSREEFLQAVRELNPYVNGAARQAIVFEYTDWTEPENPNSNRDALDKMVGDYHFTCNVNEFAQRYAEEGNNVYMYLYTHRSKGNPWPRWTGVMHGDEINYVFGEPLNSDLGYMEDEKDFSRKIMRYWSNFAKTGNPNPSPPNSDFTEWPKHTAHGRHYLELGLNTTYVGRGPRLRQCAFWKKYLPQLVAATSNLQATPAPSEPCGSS

On to `C=C(C)C1CC=C(C)CC1` (single isomer, unassigned; (+)) [(+)-limonene], for which the LC50 was 10.8 mg/L (≈ 79 µM) in series [1], 15.3 mg/L (≈ 112 µM) in series [2], 10.8 mg/L (≈ 79.1 µM) in series [3] and 10.5 mg/L (≈ 77.4 µM) in series [4]. Also, in series [4], the Resistance ratio came to 0.98.
`COP(=S)(OC)Oc1ccc(SC)c(C)c1` [Fenthion, reference compound]: the LC50 in series [1] is 0.027 mg/L (≈ 0.097 µM); in series [2], 0.022 mg/L (≈ 0.079 µM); in series [3] it was 0.012 mg/L (≈ 0.0431 µM); in series [4], 3.12 mg/L (≈ 11.2 µM). Moreover, in series [4], the Resistance ratio is 115.56.
For the molecule `COP(=S)(OC)Oc1ccc(Sc2ccc(OP(=S)(OC)OC)cc2)cc1` [Temephos, reference compound], the LC50 in series [1] worked out at 0.013 mg/L (≈ 0.0279 µM); in series [2], 0.015 mg/L (≈ 0.0322 µM); in series [3] it was 0.01 mg/L (≈ 0.0214 µM); in series [4] it was 1.68 mg/L (≈ 3.6 µM). Also, the Resistance ratio in series [4] came out at 129.23.
One may read the IC50 as the midpoint of a concentration-inhibition curve. For the molecule `C/C1=C\CC/C(C)=C/CC(C)(C)/C=C/C1` [α-humulene], in series [1], the “LC50 (Cx p. pallens), mg/L (95% CL)” value is recorded as over 150 mg/L. Further, the IC50 in series [5] was 62.3 mM; in series [6], 47.6 mM; in series [7], 58.1 mM. Besides, in series [2], the “LC50 (Ae. aegypti), mg/L (95% CL)” value was over 150 mg/L. The “LC50 (Ae. albopictus), mg/L (95% CL)” value in series [3] was over 150 mg/L.
For the molecule `CC1=CCC(=C(C)C)CC1` [α-terpinolene], the LC50 in series [1] amounted to 10.6 mg/L (≈ 78 µM); in series [2], 15.3 mg/L (≈ 112 µM); in series [3], 13.9 mg/L (≈ 102 µM); in series [4] it was 13.9 mg/L (≈ 102 µM). The Resistance ratio in series [4] came to 1.31.
For `CC1=CCC(C(C)C)=CC1` [γ-terpinene], the LC50 was determined as 17.8 mg/L (≈ 130 µM) in series [1], 20.5 mg/L (≈ 150 µM) in series [2] and 16.2 mg/L (≈ 119 µM) in series [3].
In the case of `CC1=CCC2C(C1)C2(C)C` (stereo not shown) [δ-3-carene], the LC50 in series [1] is 10.1 mg/L (≈ 74.2 µM); in series [2], 12.1 mg/L (≈ 88.8 µM); in series [3] it was 9.33 mg/L (≈ 68.5 µM); in series [4], 12.7 mg/L (≈ 93 µM). For the same molecule, in series [4], the Resistance ratio came to 1.25.
Turning to (−)-myrtenal, in series [1], the “LC50 (Cx p. pallens), mg/L (95% CL)” value was 139.61 (122.92–169.77) mg/L. The IC50 is 31.6 mM in series [5], 23.7 mM in series [6] and 34 mM in series [7]. Also, in series [2], the “LC50 (Ae. aegypti), mg/L (95% CL)” value was over 150 mg/L. Further, the “LC50 (Ae. albopictus), mg/L (95% CL)” value in series [3] is recorded as 137.86 (119.15–173.91) mg/L.
In the case of (−)-terpinen-4-ol, the “LC50 (Cx p. pallens), mg/L (95% CL)” value in series [1] is 85.66 (75.71–97.28) mg/L. The “LC50 (Ae. aegypti), mg/L (95% CL)” value in series [2] was 72.36 (66.33–78.22) mg/L. Besides, the “LC50 (Ae. albopictus), mg/L (95% CL)” value in series [3] is given as 92.16 (84.28–101.24) mg/L.
